These results are taken from article PMC5777153 (Cell chemical biology, 2017).

The assay relates to human kinome. Kind of assay: KinomeScan competitive binding assay across the kinome. The conditions noted are these: 10 μM.

In the case of `COc1cc2c(Oc3ccc(NC(=O)C4(C(=O)Nc5ccc(F)cc5)CC4)cc3F)ccnc2cc1OCCCN1CCOCC1` [foretinib], the “number of kinases bound (percent of control value of 35 or less)” value was determined as 133 kinases.
